System: juvenile hormone receptor of Daphnia magna (DampaMET)
Assay: Yeast reporter (β-galactosidase) assay, transformants with DampaMET and DampaSRC
Type: cell-based
Experimental: Subsequently, a reporter plasmid prepared by inserting the nucleotide sequence shown in SEQ ID NO: 2 into a yeast comprising the DampaMET plasmid and the DampaSRC plasmid introduced thereinto by the lithium acetate method. Thus, Yeast 1 of Invention was obtained. In the same manner, Yeasts 2 to 38 of Invention each comprising the response element according to the present invention and Control yeasts 1 to 9 shown in Table 3 were prepared.
With the use of the Yeast 1 of Invention, reporter activity to methyl farnesoate as a juvenile hormone substance was measured. At the outset, the Yeast 1 of Invention was subjected to pre-culture at 30° C. for 18 hours using the pre-culture medium shown in Table 1 until the turbidity (O.D. 595) of the pre-culture medium reached approximately 0.1. The solution of the pre-cultured cells (10 μl) and 1 μl of the solution of methyl farnesoate diluted to various concentrations with dimethyl sulfoxide (DMSO) were mixed with 90 μl of the main culture solution shown in Table 4 in a 96-well plate, and the mixture was subjected to static culture at 30° C. for 18 hours to prepare a reaction solution. The resultant was designated as a test group.
A reaction solution prepared with the addition of 1 μl of DMSO instead of a diluted methyl farnesoate solution was designated as a control group. Fractions of 10 μl each were collected from the reaction solutions and dispensed into each well of another 96-well plate. Thereafter, 100 μl of an assay reagent comprising a lytic solution (Z buffer: 60 mM Na2HPO4, 40 mM NaH2PO4, 1 mM MgCl2, 10 mM KCl, 2 mM dithiothreitol, 0.20% N-lauroylsarcosine sodium salt) mixed with 1 mg/ml ONPG (orthonitrophenylgalactopyranoside) was dispensed into each well, and the reaction was allowed to proceed at 37° C. for 30 minutes. Thereafter, the absorbance (O.D. 405) and the turbidity (O.D. 595) of the reaction solutions were assayed at the wavelength of 405 nm using a microplate reader (tradename: iMark microplate reader, Bio-Rad Laboratories). The increase of induction was calculated in accordance with the following formula.
The increase of induction is described in Ito-Harashima S et al., FEBS Open Bio., 7 (7): pp. 995-1008, 2017. When the increase of induction is positive, the transformant is determined to have reporter activity to the substance tested. The test was performed once or repeated 3 times, 5 times, or 15 times, and the average increase of induction was calculated. The control yeast 1 was treated in the same manner and reporter activity was compared.
In the same manner as in Test Example 1, the Yeasts 2, 3, 4, 5, 6, 7, 9, 10, 11, 12, 13, 14, 15, 16, 17, 18, 19, and 20 of Invention were subjected to assays of reporter activity to methyl farnesoate. The test was performed in accordance with Test Example 1, and reporter activity of the yeasts indicated above was compared with that of the control yeasts 2, 3, and 4.
With the use of the control yeast 7 comprising a different nucleotide sequence of the C-box (CACGCG) in the response element, the control yeast 8 comprising a different nucleotide sequence of the E-box (CACGTG), and the control yeast 9 comprising different nucleotide sequences of the C-box and the E-box from the relevant nucleotide sequences of the Yeast 4 of Invention, the influence of a core sequence on reporter activity to methyl farnesoate was evaluated. The test was performed in accordance with Test Example 1.
With the use of the Yeast 4 and the Yeast 8 of the present Invention, reporter activity to sex hormones; i.e., 17β-estradiol and testosterone, insect juvenile hormones; i.e., juvenile hormone III, and chemical substances suspected of having endocrine disrupting actions, such as 4-nonyl phenol, bisphenol A, 1,1,1-trichloro-2,2-bis(4-chlorophenyl)ethane (DDT), 2,2-bis(4-chlorophenyl)-1,1-dichloroethylene (DDE), and dieldrin, was assayed. The test was performed in accordance with Test Example 1. All the test substances were treated at 10 μM. […]

COC(=O)/C=C(\C)CC/C=C(\C)CCC=C(C)C [methyl farnesoate]
increase of induction (Control yeast 1 (cacgcggcggcacgtg x1), 100 pM): 0.01 | increase of induction (Control yeast 1 (cacgcggcggcacgtg x1), 1 nM): 0.00 | increase of induction (Control yeast 2 (cacgcggcggcacgtg x2), 10 nM): −0.29 | increase of induction (Control yeast 2 (cacgcggcggcacgtg x2), 100 nM): −0.27 | increase of induction (Control yeast 2 (cacgcggcggcacgtg x2), 1 μM): −0.34 | increase of induction (Control yeast 2 (cacgcggcggcacgtg x2), 10 μM): −0.21 | increase of induction (Control yeast 2 (cacgcggcggcacgtg x2), 100 μM): −0.14 | increase of induction (Control yeast 3 (cacgcggcggcacgtg x3), 10 nM): −0.12 | increase of induction (Control yeast 3 (cacgcggcggcacgtg x3), 100 nM): −0.21 | increase of induction (Control yeast 3 (cacgcggcggcacgtg x3), 1 μM): −0.27 | increase of induction (Control yeast 3 (cacgcggcggcacgtg x3), 10 μM): −0.17 | increase of induction (Control yeast 3 (cacgcggcggcacgtg x3), 100 μM): −0.17 | increase of induction (Control yeast 4 (cacgcggcggcacgtg x4), 10 nM): −0.84 | increase of induction (Control yeast 4 (cacgcggcggcacgtg x4), 100 nM): −1.49 | increase of induction (Control yeast 4 (cacgcggcggcacgtg x4), 1 μM): −1.82 | increase of induction (Control yeast 4 (cacgcggcggcacgtg x4), 10 μM): −1.05 | increase of induction (Control yeast 4 (cacgcggcggcacgtg x4), 100 μM): −2.06 | increase of induction (Control yeast 7 (SEQ ID NO: 25 x4, different C-box), 100 nM): −0.42 | increase of induction (Control yeast 7 (SEQ ID NO: 25 x4, different C-box), 10 μM): −0.12 | increase of induction (Control yeast 8 (SEQ ID NO: 28 x4, different E-box), 100 nM): 0.00 | increase of induction (Control yeast 8 (SEQ ID NO: 28 x4, different E-box), 10 μM): −0.02 | increase of induction (Control yeast 9 (SEQ ID NO: 31 x4, different C-box and E-box), 100 nM): −0.42 | increase of induction (Control yeast 9 (SEQ ID NO: 31 x4, different C-box and E-box), 10 μM): −0.12 | increase of induction (Yeast 1 of Invention (SEQ ID NO: 2 x1), 100 pM): 0.10 | increase of induction (Yeast 1 of Invention (SEQ ID NO: 2 x1), 1 nM): 0.08 | increase of induction (Yeast 2 of Invention (SEQ ID NO: 2 x2), 10 nM): 0.54 | increase of induction (Yeast 2 of Invention (SEQ ID NO: 2 x2), 100 nM): 1.26 | increase of induction (Yeast 2 of Invention (SEQ ID NO: 2 x2), 1 μM): 1.45 | increase of induction (Yeast 2 of Invention (SEQ ID NO: 2 x2), 10 μM): 1.64 | increase of induction (Yeast 2 of Invention (SEQ ID NO: 2 x2), 100 μM): 1.57 | increase of induction (Yeast 3 of Invention (SEQ ID NO: 2 x3), 10 nM): 2.05 | increase of induction (Yeast 3 of Invention (SEQ ID NO: 2 x3), 100 nM): 4.35 | increase of induction (Yeast 3 of Invention (SEQ ID NO: 2 x3), 1 μM): 4.45 | increase of induction (Yeast 3 of Invention (SEQ ID NO: 2 x3), 10 μM): 4.07 | increase of induction (Yeast 3 of Invention (SEQ ID NO: 2 x3), 100 μM): 4.29 | increase of induction (Yeast 4 of Invention (SEQ ID NO: 2 x4), 10 nM, Test Example 2): 5.13 | increase of induction (Yeast 4 of Invention (SEQ ID NO: 2 x4), 100 nM, Test Example 2): 7.55 | increase of induction (Yeast 4 of Invention (SEQ ID NO: 2 x4), 100 nM, Test Example 3): 0.42 | increase of induction (Yeast 4 of Invention (SEQ ID NO: 2 x4), 1 μM, Test Example 2): 7.12 | increase of induction (Yeast 4 of Invention (SEQ ID NO: 2 x4), 10 μM, Test Example 2): 7.44 | increase of induction (Yeast 4 of Invention (SEQ ID NO: 2 x4), 10 μM, Test Example 3): 0.51 | increase of induction (Yeast 4 of Invention (SEQ ID NO: 2 x4), 100 μM, Test Example 2): 7.47 | increase of induction (Yeast 5 of Invention (SEQ ID NO: 2 x5), 10 nM): 1.33 | increase of induction (Yeast 5 of Invention (SEQ ID NO: 2 x5), 100 nM): 3.29 | increase of induction (Yeast 5 of Invention (SEQ ID NO: 2 x5), 1 μM): 3.72 | increase of induction (Yeast 5 of Invention (SEQ ID NO: 2 x5), 10 μM): 3.76 | increase of induction (Yeast 5 of Invention (SEQ ID NO: 2 x5), 100 μM): 4.05 | increase of induction (Yeast 6 of Invention (SEQ ID NO: 5 x3), 10 nM): 0.33 | increase of induction (Yeast 6 of Invention (SEQ ID NO: 5 x3), 100 nM): 1.19 | increase of induction (Yeast 6 of Invention (SEQ ID NO: 5 x3), 1 μM): 1.18 | increase of induction (Yeast 6 of Invention (SEQ ID NO: 5 x3), 10 μM): 1.33 | increase of induction (Yeast 6 of Invention (SEQ ID NO: 5 x3), 100 μM): 1.33 | increase of induction (Yeast 7 of Invention (SEQ ID NO: 8 x3), 10 nM): 0.06 | increase of induction (Yeast 7 of Invention (SEQ ID NO: 8 x3), 100 nM): 0.26 | increase of induction (Yeast 7 of Invention (SEQ ID NO: 8 x3), 1 μM): 0.32 | increase of induction (Yeast 7 of Invention (SEQ ID NO: 8 x3), 10 μM): 0.36 | increase of induction (Yeast 7 of Invention (SEQ ID NO: 8 x3), 100 μM): 0.34 | increase of induction (Yeast 9 of Invention (SEQ ID NO: 34 x1), 100 nM): 0.19 | increase of induction (Yeast 9 of Invention (SEQ ID NO: 34 x1), 10 μM): 0.16 | increase of induction (Yeast 10 of Invention (SEQ ID NO: 34 x2), 100 nM): 0.08 | increase of induction (Yeast 10 of Invention (SEQ ID NO: 34 x2), 10 μM): 0.20 | increase of induction (Yeast 11 of Invention (SEQ ID NO: 34 x3), 100 nM): 0.22 | increase of induction (Yeast 11 of Invention (SEQ ID NO: 34 x3), 10 μM): 0.24 | increase of induction (Yeast 12 of Invention (SEQ ID NO: 34 x4), 100 nM): 1.43 | increase of induction (Yeast 12 of Invention (SEQ ID NO: 34 x4), 10 μM): 2.55 | increase of induction (Yeast 13 of Invention (SEQ ID NO: 34 x5), 10 μM): 0.09 | increase of induction (Yeast 14 of Invention (SEQ ID NO: 8 x1), 10 μM): 0.09 | increase of induction (Yeast 15 of Invention (SEQ ID NO: 8 x2), 100 nM): 0.09 | increase of induction (Yeast 15 of Invention (SEQ ID NO: 8 x2), 10 μM): 0.16 | increase of induction (Yeast 16 of Invention (SEQ ID NO: 8 x4), 100 nM): 0.65 | increase of induction (Yeast 16 of Invention (SEQ ID NO: 8 x4), 10 μM): 1.32 | increase of induction (Yeast 17 of Invention (SEQ ID NO: 37 x1), 100 nM): 0.06 | increase of induction (Yeast 17 of Invention (SEQ ID NO: 37 x1), 10 μM): 0.09 | increase of induction (Yeast 18 of Invention (SEQ ID NO: 37 x2), 100 nM): 0.10 | increase of induction (Yeast 19 of Invention (SEQ ID NO: 37 x3), 100 nM): 1.53 | increase of induction (Yeast 19 of Invention (SEQ ID NO: 37 x3), 10 μM): 2.27 | increase of induction (Yeast 20 of Invention (SEQ ID NO: 37 x4), 100 nM): 1.55 | increase of induction (Yeast 20 of Invention (SEQ ID NO: 37 x4), 10 μM): 1.85 | increase of induction (Yeast 25 of Invention (SEQ ID NO: 43 x1), 100 nM): 0.06 | increase of induction (Yeast 25 of Invention (SEQ ID NO: 43 x1), 10 μM): 0.15 | increase of induction (Yeast 26 of Invention (SEQ ID NO: 43 x2), 100 nM): 0.35 | increase of induction (Yeast 26 of Invention (SEQ ID NO: 43 x2), 10 μM): 0.38 | increase of induction (Yeast 27 of Invention (SEQ ID NO: 43 x3), 100 nM): 0.03 | increase of induction (Yeast 27 of Invention (SEQ ID NO: 43 x3), 10 μM): 0.64 | increase of induction (Yeast 28 of Invention (SEQ ID NO: 43 x4), 100 nM): 1.87 | increase of induction (Yeast 28 of Invention (SEQ ID NO: 43 x4), 10 μM): 2.51 | increase of induction (Yeast 29 of Invention (SEQ ID NO: 46 x1), 100 nM): 0.07 | increase of induction (Yeast 29 of Invention (SEQ ID NO: 46 x1), 10 μM): 0.07 | increase of induction (Yeast 30 of Invention (SEQ ID NO: 46 x2), 100 nM): 0.16 | increase of induction (Yeast 30 of Invention (SEQ ID NO: 46 x2), 10 μM): 0.07 | increase of induction (Yeast 31 of Invention (SEQ ID NO: 46 x3), 100 nM): 0.09 | increase of induction (Yeast 31 of Invention (SEQ ID NO: 46 x3), 10 μM): 0.23 | increase of induction (Yeast 32 of Invention (SEQ ID NO: 49 x1), 100 nM): 0.11 | increase of induction (Yeast 32 of Invention (SEQ ID NO: 49 x1), 10 μM): 0.31 | increase of induction (Yeast 33 of Invention (SEQ ID NO: 49 x2), 100 nM): 0.42 | increase of induction (Yeast 33 of Invention (SEQ ID NO: 49 x2), 10 μM): 0.22 | increase of induction (Yeast 34 of Invention (SEQ ID NO: 49 x3), 100 nM): 0.66 | increase of induction (Yeast 34 of Invention (SEQ ID NO: 49 x3), 10 μM): 2.15 | increase of induction (Yeast 35 of Invention (SEQ ID NO: 49 x4), 100 nM): 1.44 | increase of induction (Yeast 35 of Invention (SEQ ID NO: 49 x4), 10 μM): 1.05

From patent US20230250436A1, “NUCLEIC ACID THAT INTERACTS WITH A RECEPTOR FOR ENDOCRINE DISRUPTING CHEMICALS AND USE THEREOF” (KUMIAI CHEMICAL INDUSTRY CO., LTD., priority 2020, published 2023)
